ChEMBL document CHEMBL1201862, “PubChem BioAssay data set” (2004)
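1) Cells in 96-well plates. 2) Compound, 48 h, 5 concentrations. 3) Linear interpolation between surrounding doses. 4) Unreached endpoint = highest concentration. At the GI50, growth is halved.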 Calls of active or inactive are those of the source. Rule as the data show it: active = GI50 up to about 1.1 µM and inactive = higher.

Assays:
Experiment in all cases: inhibition of tumour cell growth, NCI panel, 48 h
SNB-75 = test system: SNB-75
LOX IMVI = test system: LOX IMVI
MOLT-4 = test system: MOLT-4
IGROV-1 = test system: IGROV-1
Malme-3M = test system: Malme-3M
KM12 = test system: KM12
BT-549 = test system: BT-549
MDA-N = test system: MDA-N
OVCAR-8 = test system: OVCAR-8
SK-MEL-28 = test system: SK-MEL-28
NCI-H460 = test system: NCI-H460
SF-539 = test system: SF-539
SK-OV-3 = test system: SK-OV-3
EKVX = test system: EKVX
SK-MEL-2 = test system: SK-MEL-2
786-0 = test system: 786-0
ACHN = test system: ACHN
M14 = test system: M14
MCF7 = test system: MCF7
HL-60 = test system: HL-60
SW-620 = test system: SW-620
HOP-92 = test system: HOP-92
PC-3 = test system: PC-3
COLO 205 = test system: COLO 205
NCI/ADR-RES = test system: NCI/ADR-RES
HT-29 = test system: HT-29
NCI-H226 = test system: NCI-H226
SK-MEL-5 = test system: SK-MEL-5
A498 = test system: A498
SF-268 = test system: SF-268
K562 = test system: K562
HCT-15 = test system: HCT-15
HCT-116 = test system: HCT-116
MDA-MB-231 = test system: MDA-MB-231
TK-10 = test system: TK-10
MDA-MB-435 = test system: MDA-MB-435
HOP-62 = test system: HOP-62
A549 = test system: A549
UO-31 = test system: UO-31
OVCAR-3 = test system: OVCAR-3
CCRF-CEM = test system: CCRF-CEM
SF-295 = test system: SF-295
CAKI-1 = test system: CAKI-1
SN12C = test system: SN12C
NCI-H522 = test system: NCI-H522
HCC 2998 = test system: HCC 2998
U-251 = test system: U-251
OVCAR-4 = test system: OVCAR-4
OVCAR-5 = test system: OVCAR-5
RXF 393 = test system: RXF 393
NCI-H23 = test system: NCI-H23
DU-145 = test system: DU-145
UACC-257 = test system: UACC-257
SNB-19 = test system: SNB-19

For `COC(=O)C1=CC2C(=O)c3ccccc3C1(c1ccccc1)N2C1CCCCC1` (centres undefined), the GI50 (SNB-75) was 35.1 µM (inactive), the GI50 (LOX IMVI) was 15.5 µM (inactive) and the GI50 (MOLT-4) was 7.55 µM (inactive). For the same compound, the GI50 (IGROV-1) was 20.1 µM (inactive), the GI50 (Malme-3M) was 22.6 µM (inactive) and the GI50 (KM12) was 14.3 µM (inactive). The GI50 (BT-549) was 22.6 µM (inactive), the GI50 (MDA-N) was 23.7 µM (inactive) and the GI50 (OVCAR-8) was 27 µM (inactive). For the same compound, the GI50 (SK-MEL-28) was 17.6 µM (inactive), the GI50 (NCI-H460) was 14.8 µM (inactive) and the GI50 (SF-539) was 20.6 µM (inactive). For the same compound, the GI50 (SK-OV-3) was 31 µM (inactive), the GI50 (EKVX) was 34.9 µM (inactive) and the GI50 (SK-MEL-2) was 12.3 µM (inactive). The GI50 (786-0) was > 100 µM (inactive), the GI50 (ACHN) was 16.2 µM (inactive) and the GI50 (M14) was 20 µM (inactive). For the same compound, the GI50 (MCF7) was 15.6 µM (inactive), the GI50 (HL-60) was 11.6 µM (inactive) and the GI50 (SW-620) was 27.2 µM (inactive). For the same compound, the GI50 (HOP-92) was 22.6 µM (inactive), the GI50 (PC-3) was 9.62 µM (inactive) and the GI50 (COLO 205) was 13.1 µM (inactive). For the same compound, the GI50 (NCI/ADR-RES) was 27.9 µM (inactive), the GI50 (HT-29) was 14.8 µM (inactive) and the GI50 (NCI-H226) was 24.7 µM (inactive). For the same compound, the GI50 (SK-MEL-5) was 10.1 µM (inactive), the GI50 (A498) was 26.7 µM (inactive) and the GI50 (SF-268) was 27.2 µM (inactive). For the same compound, the GI50 (K562) was 4.63 µM (inactive), the GI50 (HCT-15) was 27 µM and the GI50 (HCT-116) was 25.1 µM (inactive). For the same compound, the GI50 (MDA-MB-231) was 17 µM (inactive), the GI50 (TK-10) was 30.1 µM (inactive) and the GI50 (MDA-MB-435) was 16.9 µM (inactive). The GI50 (HOP-62) was 16.7 µM (inactive), the GI50 (A549) was 20 µM (inactive) and the GI50 (UO-31) was 15.1 µM (inactive). The GI50 (OVCAR-3) was 23.6 µM (inactive), the GI50 (CCRF-CEM) was 15.1 µM (inactive) and the GI50 (SF-295) was 16 µM (inactive). For the same compound, the GI50 (CAKI-1) was 20.5 µM (inactive), the GI50 (SN12C) was 24 µM (inactive) and the GI50 (NCI-H522) was 27.9 µM (inactive). The GI50 (HCC 2998) was 3.15 µM (inactive), the GI50 (U-251) was 16.6 µM (inactive) and the GI50 (OVCAR-4) was 17.1 µM (inactive). The GI50 (OVCAR-5) was 32.3 µM (inactive), the GI50 (RXF 393) was 7.87 µM (inactive) and the GI50 (NCI-H23) was 18.7 µM (inactive). For the same compound, the GI50 (DU-145) was 27 µM (inactive), the GI50 (UACC-257) was 12.4 µM (inactive) and the GI50 (SNB-19) was 39.9 µM (inactive).
